Assay results from paper PMC11845477, “Exploring the principles behind antibiotics with limited resistance” (Nature Communications, 2025).
Where a SMILES comes first, the peptide text is derived from it. Bridges are numbered along the chain shown (N, C = ends). [ ]: non-standard residue; d: D form. The star is where a group is joined. X1 = NC[C@@H](CC(=O)*)c1cccc(Cl)c1; Dab = NCC[C@H](N)C(=O)O; Dap = NC[C@H](N)C(=O)O

How the values were obtained:
E. coli BW25113-ΔacrB = assay: AcrAB-TolC efflux deficiency screen, relative MIC; format: cell-based, Escherichia coli; conditions: ΔacrB vs wild-type
Procedure: (§1) Fig. 6 The impact of AcrAB-TolC activity on antibiotic susceptibility. E. coli strains with AcrAB-TolC depletion (BW25113-ΔacrB) and overexpression (BW25113: pUCacrAB) were treated with various antibiotics, and the level of resistance was determined as minimum inhibitory concentration (MIC) relative to a wild-type strain, presented on a logarithmic scale (log2). Each bar represents the mean resistance level (susceptibility, i.e., level of resistance < 0; and resistance, i.e., level of resistance > 0) to antibiotics induced by acrAB overexpression (blue bars; E. coli with a multicopy plasmid of the acrAB genes (pUCacrAB)) and acrB deletion (red bars; mutant E. coli with acrB gene deletion (ΔacrB)) compared to the wild-type. Data are presented as mean values of 3 biological replicates ± SD. […] Detailed information on antibiotic and bacterial strain abbreviations is provided in Supplementary Data 1. Source data are provided as a Source Data file. For information on mode of action groups, refer to Table 1.
(§2) For the efflux deficiency screen, the ΔacrB mutant of E. coli K12 BW25113[86] and its equivalent wild-type control strain with intact gene were utilized. In contrast, BW25113 carrying a multicopy acrAB plasmid (pUCacrAB)[87] and its control strain harboring an empty pUC118 plasmid were used to overexpress the acrAB efflux system. According to established protocols via P1 transduction, the suitable acrB deletion mutant (ΔacrB BW25113) was created, while the pUCacrAB plasmid was kindly provided by Kunihiko Nishino and Akihito Yamaguchi (Osaka University, Osaka, Japan). In a prior study, both strains were employed. Since the copy number of the plasmid carrying the efflux pump is controlled by native promoters, external induction is unnecessary.
(§3) Antibiotic susceptibilities of these strains were evaluated using a modified version of the standard broth dilution method. In 96-well microtiter plates containing fresh MHB medium, or supplemented MS medium in case of SCH79797, ten-step serial dilutions of an antibiotic from a stock solution were made (2 wells per antibiotic concentration per strain). The two wells contained only supplemented media without any antibiotics […]. Strains were incubated overnight at 37 °C with continuous agitation. Additionally, plasmid containing strains were grown in the presence of 100 µg/mL ampicillin. The culture was diluted to yield a cell suspension with 5 ×10^5 cells/mL and then inoculated into the wells of the microtiter plate. To determine the medium’s background OD value, the first column of the 96-well plate contained solely MHB without inoculum. Prior to the measurement, the plates were incubated at 37 °C with continuous shaking at 900 rpm with 3 mm throw. OD600 values were determined in a microplate reader after 18 hours of incubation (Biotek Synergy 2). The minimum inhibitory concentration (MIC) was determined as the lowest concentration of antibiotic at which the OD600 values were less than 0.05 after subtracting the background value. The log2 of the relative MIC was computed using the following equation:2 log2relativeMICpUCacrAB=MICpUCacrAB/MICpUC118 3 log2relativeMICΔacrB=MICΔacrB/MICwt

[1] = system: A. baumannii ATCC 17978 (SEN) and A. baumannii ATCC BAA-1605 (MDR); assay: Frequency-of-resistance (FoR) assay, relative MIC of mutants; format: cell-based, Acinetobacter baumannii
Procedure: The susceptibility of antibiotics to resistance development was evaluated in two strains of each bacterial species: a multidrug-resistant strain and an antibiotic-sensitive strain of Escherichia coli, Klebsiella pneumoniae, Acinetobacter baumannii, and Pseudomonas aeruginosa. To explore first-step resistance, we previously used a standard protocol for spontaneous frequency-of-resistance analysis (FoR assay) at multiple concentrations of each antibiotic[10],[28],[31]–[33]. […] For all other combinations, approximately 10^10 bacterial cells were exposed to one of each antibiotic on agar plates for two days at concentrations where the given strain is susceptible. We examined resistance levels by contrasting the minimum inhibitory concentration (MICs) of the mutated strains to the original wild-type bacterial strain (i.e., relative MIC).
To estimate the frequency of spontaneous mutations that confer resistance in a microbial population, we conducted a frequency of resistance (FoR) assay following established protocols[10],[31]–[33]. […] Prior to plating, bacteria were grown overnight in MHB medium at 37 °C and 250 RPM, then centrifuged and washed in MHB. All experiments were performed in triplicate, and plates were incubated at 37 °C for 48 hours. Total colony-forming units (CFUs) were determined by plating appropriate dilutions onto antibiotic-free MHB agar. Resistance frequencies were calculated by dividing the number of resistant colonies by the initial viable cell count. From the plates with the highest antibiotic concentration, ten colonies were selected for MIC determination and whole-genome sequencing.
A robotic liquid handling system was used to automatically prepare a 11 to 16-step serial dilution in 384-well microtiter plates (Greiner). A final concentration of 5 × 10^5 bacterial cells per mL were inoculated into each well containing 60 µL MHB medium. Bacterial cultures were incubated at 37 °C with continuous shaking (Infors shaker, 900 rpm with 3 mm throw) for 18 hours (2 replicates from each). Cell growth was monitored by measuring the optical density (OD600 values, using Biotek Synergy microplate reader). MIC was defined as the antibiotic concentration of complete growth inhibition (i.e., OD600 < 0.05). Relative MIC was calculated as follows:1 relativeMIC=MICevolved/MICancestor […]
Supplementary Figure 3. Resistance levels following the frequency of resistance assay across bacterial strains. The level of resistance was measured as the fold change in relative MIC between evolved and ancestral strains. Data are grouped by bacterial strain (A. baumannii (AB), E. coli (EC), K. pneumoniae (KP), and P. aeruginosa (PA)) and categorized as either multidrug-resistant (MDR) or sensitive (SEN). Each data point represents a laboratory evolved line, and boxplots show the median, first and third quartiles, with whiskers indicating the 5th and 95th percentiles. […]
analysis was performed using two-sided Dunn’s post-hoc test with Benjamini-Hochberg correction for multiple comparisons (**/ * indicates p < 0.01/ 0.05). For detailed information on antibiotic and bacterial species, see Supplementary Table 1. For mode of action groups, refer to Table 1. Source data are provided as a Source Data file.

[2] = system: E. coli BW25113: pUCacrAB; assay: AcrAB-TolC efflux overexpression screen, relative MIC; format: cell-based, Escherichia coli; conditions: pUCacrAB vs empty pUC118 control
Procedure: as §1, §2, §3

[3] = Acinetobacter baumannii ATCC 17978 (AB-SEN), evolved line 1
[4] = Acinetobacter baumannii ATCC 17978 (AB-SEN), evolved line 2
[5] = Acinetobacter baumannii ATCC 17978 (AB-SEN), evolved line 3
[6] = Acinetobacter baumannii ATCC 17978 (AB-SEN), evolved line 1 versus ancestor
[7] = Acinetobacter baumannii ATCC 17978 (AB-SEN), evolved line 2 versus ancestor
[8] = Acinetobacter baumannii ATCC 17978 (AB-SEN), evolved line 3 versus ancestor
[9] = Acinetobacter baumannii ATCC BAA 1605 (AB-MDR), evolved line 2
[10] = Acinetobacter baumannii ATCC BAA 1605 (AB-MDR), evolved line 1
[11] = Acinetobacter baumannii ATCC BAA 1605 (AB-MDR), evolved line 1 versus ancestor
[12] = Acinetobacter baumannii ATCC BAA 1605 (AB-MDR), evolved line 2 versus ancestor
[13] = Acinetobacter baumannii ATCC BAA 1605 (AB-MDR), evolved line 3
[14] = Acinetobacter baumannii ATCC BAA 1605 (AB-MDR), evolved line 3 versus ancestor
[15] = FoR assay, Acinetobacter baumannii ATCC 17978 (AB-SEN), evolved line 1
[16] = FoR assay, Acinetobacter baumannii ATCC 17978 (AB-SEN), evolved line 2
[17] = FoR assay, Acinetobacter baumannii ATCC 17978 (AB-SEN), evolved line 3
[18] = FoR assay, Acinetobacter baumannii ATCC BAA 1605 (AB-MDR), evolved line 1
[19] = FoR assay, Acinetobacter baumannii ATCC BAA 1605 (AB-MDR), evolved line 2
[20] = FoR assay, Acinetobacter baumannii ATCC BAA 1605 (AB-MDR), evolved line 3

Structure (SMILES) | Relative MIC (log2) (E. coli BW25113-ΔacrB; replicate 1) | Relative MIC (log2) (E. coli BW25113-ΔacrB; replicate 2) | Relative MIC (log2) (E. coli BW25113-ΔacrB; replicate 3) | MIC of evolved line [1, 3] | MIC of evolved line [1, 4] | MIC of evolved line [1, 5] | Relative MIC [1, 6] | Relative MIC [1, 7] | Relative MIC [1, 8] | MIC of evolved line [1, 9] | MIC of evolved line [1, 10] | Relative MIC [1, 11] | Relative MIC [1, 12] | MIC of evolved line [1, 13] | Relative MIC [1, 14] | Relative MIC [1, 15] | Relative MIC [1, 16] | Relative MIC (log2) ([2]; replicate 1) | Relative MIC (log2) ([2]; replicate 2) | Relative MIC (log2) ([2]; replicate 3) | also measured
CC(C)c1ccc(Cn2ccc3c4c(N)nc(NC5CC5)nc4ccc32)cc1 [SCH79797] | -1 | -1 | -1 | 8 µg/mL | 8 µg/mL | 8 µg/mL | 2 | 2 | 2 | 4 µg/mL | 2 µg/mL | 1 | 1 | 4 µg/mL | 1 | 2 | 2 | 1 | 1 | 1 | Relative MIC [1, 17]: 2; Relative MIC [1, 18]: 1; Relative MIC [1, 19]: 1; Relative MIC [1, 20]: 1
CC(C)C[C@@H]1NC(=O)[C@@H](Cc2ccccc2)NC(=O)[C@H](CCN)NC(=O)[C@@H](NC(=O)[C@H](CN)NC(=O)[C@@H](NC(=O)C[C@H](CN)c2cccc(Cl)c2)[C@@H](C)O)CCNC(=O)[C@H]([C@@H](C)O)NC(=O)[C@H](CCN)NC(=O)[C@H](CCN)NC1=O [SPR206] (X1-T[Dap][Dab][Dab][dF]L[Dab][Dab]T; lactam 3-C (inferred); N-terminus assumed) | 0 | 0 | 0 | 0.125 µg/mL | 0.125 µg/mL | 0.125 µg/mL | 1 | 1 | 1 | 0.25 µg/mL | 0.25 µg/mL | 2 | 2 | 0.25 µg/mL | 2 | 1 | 1 | 0 | 0 | 0 | Relative MIC [1, 17]: 1; Relative MIC [1, 18]: 2; Relative MIC [1, 19]: 2; Relative MIC [1, 20]: 2
C[C@@H](O)[C@H]1C(=O)N2C(C(=O)O)=C(S[C@H]3CC[S@@+]([O-])C3)S[C@H]12 [Sulopenem] | 0.585 | 0.585 | 0.585 | 4 µg/mL | 4 µg/mL | 4 µg/mL | 4 | 4 | 4 | – | – | – | – | – | – | – | – | 0 | 0 | 0 | –
